According to paper PMC3261883, “Structure of S. aureus HPPK and the Discovery of a New Substrate Site Inhibitor” (PLoS ONE, 2012):
≈ marks a conversion by molar mass, not a printed value. Where “and” joins values, the source holds several entries; their conditions need not be identical. Equal entries are not always repeated. Where two headings read alike, the source gives them in different places.

What was measured:
SaHPPK [1] = assay: Differential scanning fluorimetry (DSF) assay for ligand binding; design: species or system Staphylococcus aureus; conditions: for increase in unfolding temperature (Tm): saturating ligand
Experimental: A 96-well plate containing solutions of 2–5 µM SaHPPK, 10× Sypro orange dye and 500 µM of test compound in buffer (50 mM HEPES (pH 8.0), 1% sorbitol, 2.0 mM DTT, 10 mM MgCl2) was heated from […] at a rate of 1.0 K min^−1. The fluorescence intensity was measured with excitation/emission wavelengths of 583/610 nm. Tm and ΔTm values were determined from the melting curves obtained.

SaHPPK [2] = molecular target: T1, SaHPPK (Staphylococcus aureus, UniProt A0A0H3JXR3); type: binding
T1 sequence (A0A0H3JXR3 entry or part of it): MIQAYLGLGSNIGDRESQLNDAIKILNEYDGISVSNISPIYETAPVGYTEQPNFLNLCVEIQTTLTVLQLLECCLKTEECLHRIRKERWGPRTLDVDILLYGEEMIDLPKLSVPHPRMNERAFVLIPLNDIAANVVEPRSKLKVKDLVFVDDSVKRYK

SaHPPK [3] = molecular target: T1, SaHPPK; assay: KinaseGlo luminescent biochemical assay of HPPK activity
[4] = design: method as in PMID 17511860; conditions: in vivo mouse model; cited from earlier work
[5] = Solubility estimated from ITC experiments; type: physicochemical; conditions: ITC buffer, estimated assuming 1:1 binding stoichiometry
B. anthracis DHPS = conditions: co-crystallisation; cited from earlier work
E. coli = E. coli cell-based growth inhibition assays; conditions: data not shown
SaHPPK [6] = molecular target: T1, SaHPPK; assay: biochemical; type: binding
SaHPPK [7] = molecular target: T1, SaHPPK; assay: Surface plasmon resonance (SPR) with biotinylated SaHPPK on NeutrAvidin chip; type: binding
EcHPPK = conditions: cited from earlier work
E. coli HPPK = conditions: read-out: Km for the E. coli enzyme; different assays; cited from earlier work
[8] = ITC, 298 K, in the presence of 1 mM AMPCPP
[9] = ITC, 298 K, ligand alone, read-out: K d ITC
[10] = SPR steady-state, 293 K, ligand alone, read-out: K d SPR
[11] = fluorescence-based methods, in the presence of Mg2+, read-out: binding affinity (K d) of EcHPPK
[12] = read-out: dissociation constant for EcHPPK
[13] = in the absence of Mg2+, data not shown
[14] = SPR, 1:1 kinetic interaction model

Question: What does the source list for `Nc1nc2nc(S)[nH]c2c(=O)[nH]1` [8-mercaptoguanine]?
Answer: increase in Tm compared to apo (SaHPPK [1]; 500 µM ligand, 5 µM enzyme): 3.4 °C; K d indicated by NMR exchange regime (SaHPPK [2]): low µM range; IC50 (SaHPPK [3]; HMDP 0.3 µM, ATP 0.2 µM, read-out: IC50 for inhibition of SaHPPK): 41 µM and ~41 µM; antiviral activity and toxicity [4]: Antiviral activity,without significant toxicity; solubility [5]: ~300 µM (≈ 55 µg/mL); binding and inhibition of B. anthracis DHPS (B. anthracis DHPS): bind to, but not inhibit; growth inhibition (E. coli): did not observe growth inhibition; N (binding stoichiometry) (SaHPPK [6]; [8]): 0.96±0.09; TΔS (SaHPPK [6]; [8]): -10.4 ± 1.5 kcal/mol; ΔG (SaHPPK [6]; [8]): -6.8 ± 0.1 kcal/mol; ΔH (SaHPPK [6]; [8]): -17.2 ± 1.4 kcal/mol; Kd (SaHPPK [6]; ITC, 298 K, in the presence of 1 mM AMPCPP, read-out: K d ITC): 11.3 ± 2.3 µM; N (binding stoichiometry) (SaHPPK [6]; ITC, 298 K, ligand alone): 1.00±0.06; TΔS (SaHPPK [6]; ITC, 298 K, ligand alone): -12.9 ± 3.5 kcal/mol; ΔG (SaHPPK [6]; ITC, 298 K, ligand alone): -6.7 ± 0.2 kcal/mol; ΔH (SaHPPK [6]; ITC, 298 K, ligand alone): -19.6 ± 3.4 kcal/mol; Kd (SaHPPK [6]; [9]): 12.8 ± 3.4 µM; ligand efficiency (SaHPPK [6]; K d ∼13 µM over 12 heavy atoms): 2.3 kJ/heavy atom; Kd (SaHPPK [6]; absence of cofactor, read-out: equilibrium dissociation constant Kd, summary value from ITC and SPR): ~13 µM and ~12 µM; times more tightly bound than HMDP (SaHPPK [7]): ~10 times; Kd (SaHPPK [7]; SPR steady-state, 293 K, in the presence of 5 mM ATP, read-out: K d SPR): 8.1 ± 1.6 µM; Kd (SaHPPK [7]; [10]): 10.8 ± 0.4 µM

Question: With `Nc1ncnc2c1ncn2[C@@H]1O[C@H](COP(=O)(O)OP(=O)(O)O)[C@@H](O)[C@H]1O` [ADP] as the molecule, how does the Kd (SaHPPK [7]; [10]) read?
Answer: Its Kd is 760 ± 16 µM.

Question: Which results are given for `Nc1ncnc2c1ncn2C1OC(COP(=O)(O)CP(=O)(O)OP(=O)(O)O)C(O)C1O` (stereo not drawn) [AMPCPP, α,β-methylene adenosine 5′-triphosphate]?
Answer: increase in unfolding temperature (Tm) (SaHPPK [1]): 11 °C; Kd (EcHPPK; [11]): 0.08 to 0.45 µM; Kd (EcHPPK; [12]): 0.45 µM; fold tighter binding than ATP (SaHPPK [6]; ITC affinity ratio): approximately 10 fold; N (binding stoichiometry) (SaHPPK [6]; ITC, 298 K, ligand alone): 1.06±0.12; TΔS (SaHPPK [6]; ITC, 298 K, ligand alone): 1.3 ± 1.0 kcal/mol; ΔG (SaHPPK [6]; ITC, 298 K, ligand alone): -7.5 ± 0.2 kcal/mol; ΔH (SaHPPK [6]; ITC, 298 K, ligand alone): -6.3 ± 1.0 kcal/mol; Kd (SaHPPK [6]; [9]): 3.1 ± 1.2 µM; binding by ITC (SaHPPK [6]; [13]): no significant binding; Kd (SaHPPK [7]; [10]): 7.7 ± 0.4 µM; k a (SaHPPK [7]; [14]): 8.8±1.3×10^4 M^−1 s^−1; k d (SaHPPK [7]; [14]): 0.5 ± 0.1 s⁻¹; Kd (SaHPPK [7]; SPR, from k d/k a ratio, read-out: K d from kinetic interaction model): 5.4 ± 0.3 µM

Question: For `Nc1ncnc2c1ncn2[C@@H]1O[C@H](COP(=O)(O)O)[C@@H](O)[C@H]1O` [AMP], which Kd (SaHPPK [7]; [10]) is on record?
Answer: Its Kd is 4900 ± 1100 µM.

Question: What does the source list for `Nc1ncnc2c1ncn2[C@@H]1O[C@H](COP(=O)(O)OP(=O)(O)OP(=O)(O)O)[C@@H](O)[C@H]1O` [ATP]?
Answer: increase in unfolding temperature (Tm) (SaHPPK [1]): 6 °C; Kd (EcHPPK; [11]): 2.6 to 4.5 µM; Kd (EcHPPK; [12]): 2.6 µM; Km (SaHPPK [3]; KinaseGlo assay, read-out: Km app): 10.8 ± 2.5 µM; N (binding stoichiometry) (SaHPPK [6]; ITC, 298 K, ligand alone): 0.98±0.11; TΔS (SaHPPK [6]; ITC, 298 K, ligand alone): -0.3 ± 0.5 kcal/mol; ΔG (SaHPPK [6]; ITC, 298 K, ligand alone): -6.2 ± 0.1 kcal/mol; ΔH (SaHPPK [6]; ITC, 298 K, ligand alone): -6.5 ± 0.4 kcal/mol; Kd (SaHPPK [6]; [9]): 31 ± 4.5 µM; binding by ITC (SaHPPK [6]; [13]): no significant binding; Kd (SaHPPK [7]; [10]): ~45 µM and 45 µM

Question: What does the source list for `Nc1nc2c(c(=O)[nH]1)N=C(CO)CN2` [HMDP, 6-hydroxymethyl-7,8-dihydropterin]?
Answer: Kd (EcHPPK; in the presence of Mg2+ and AMPCPP, read-out: binding affinity of EcHPPK): 0.036 to 0.17 µM; Km (E. coli HPPK): 0.7 to 1.6 µM; N (binding stoichiometry) (SaHPPK [6]; [8]): 1.23±0.15; TΔS (SaHPPK [6]; [8]): -3.1 ± 0.9 kcal/mol; ΔG (SaHPPK [6]; [8]): -7.4 ± 0.2 kcal/mol; ΔH (SaHPPK [6]; [8]): -10.5 ± 1.0 kcal/mol; Kd (SaHPPK [6]; K d ITC, ITC, 298 K, in the presence of 1 mM AMPCPP): ~4 µM and 4 µM; binding by ITC (SaHPPK [6]; in the presence of the inhibitor 8-mercaptoguanine): could not be detected; Kd (SaHPPK [7]; K d SPR, SPR steady-state, 293 K, in the presence of AMPCPP): 3.6 ± 0.3 µM; Kd (SaHPPK [7]; K d SPR, SPR steady-state, 293 K, ligand alone): ~100 µM and 100 µM

Question: Which “affinity by SPR” value (SaHPPK [7]; data not shown) does the source give for `Nc1nc2nc[nH]c2c(=O)[nH]1` [guanine] here?
Answer: The value was “undetectable”.

Question: Which “affinity of EcHPPK, fold less than for Mg-ATP” value (EcHPPK) does the source give for Mg-GTP here?
Answer: Its value is 260 fold.
